Activity calls are given as the source filed them. The rule behind the calls is not given here.
Experiments:
Mus musculus [1] = species: Mus musculus
Description: Drug dose in (mg/kg)/day to provide an increase in life span of 40% was determined; nr refers to Particular level of biological response required not reached before drug toxicity supervened

Salmonella typhimurium = details: Salmonella enterica subsp. enterica serovar Typhimurium
Mus musculus [2] = species: Mus musculus; remark: listed apart in the source
Description: Drug dose in (mg/kg)/day to provide an increase in life span of 40% was determined;nr refers to Particular level of biological response required not reached before drug toxicity supervened

Description for physchem: Ionization constant (pKa)

SMILES | pKa (physchem) | Log 1/D40 (Mus musculus [1]) | Log M50 (Salmonella typhimurium) | Log 1/D40 (Mus musculus [2])
C[N+](C)=[N+]=Nc1ccc2c(Nc3ccc(NS(C)(=O)=O)cc3)c3ccccc3nc2c1 | 7.13 |  |  | 
COc1cc(Nc2c3ccccc3nc3ccccc23)ccc1NS(C)(=O)=O [o-Amsacrine] | 7.03 | Not reached |  | 
CS(=O)(=O)Nc1ccc(Nc2c3ccccc3nc3ccc([N+](=O)[O-])cc23)cc1 |  | Not reached |  | 
CCCCCCS(=O)(=O)Nc1ccc(Nc2c3ccccc3nc3ccccc23)cc1 |  | Not reached |  | 
CS(=O)(=O)Nc1ccc(Nc2c3ccccc3nc3cc(NS(C)(=O)=O)ccc23)cc1 |  |  | inactive | 
CNc1ccc2c(Nc3ccc(NS(C)(=O)=O)cc3)c3ccccc3nc2c1 | 9.3 |  |  | 
Cc1cc(Nc2c3ccccc3nc3ccccc23)ccc1NS(C)(=O)=O | 7.08 | Not reached |  | 
CS(=O)(=O)Nc1ccc(Nc2c3ccccc3nc3cc(N=[N+]=[N-])ccc23)cc1 | 7 |  |  | 
CS(=O)(=O)Nc1ccc(Nc2c3ccccc3nc3ccccc23)c(N)c1 | 7.65 |  |  | 
CS(=O)(=O)Nc1ccc(Nc2c3ccccc3nc3cc(C#N)ccc23)cc1 | 5.75 | Not reached | inactive | 
CS(=O)(=O)Nc1ccc(Nc2c3ccccc3nc3ccccc23)c(Cl)c1 | 6.34 | Not reached |  | 
CS(=O)(=O)Nc1ccc(Nc2c3ccccc3nc3ccccc23)cc1Cl | 6.44 | Not reached |  | 
CS(=O)(=O)Nc1ccc(Nc2c3ccccc3nc3ccccc23)c([N+](=O)[O-])c1 | 4.86 | Not reached | inactive | 
CS(=O)(=O)Nc1ccc(Nc2c3ccccc3nc3ccccc23)cc1[N+](=O)[O-] |  | Not reached |  | 
Cc1cc(NS(C)(=O)=O)ccc1Nc1c2ccccc2nc2ccccc12 | 7.38 |  |  | 
CS(=O)(=O)Nc1ccc(Nc2c3ccccc3nc3cc(S(C)(=O)=O)ccc23)cc1 | 5.65 | Not reached |  | 
COc1cccc2nc3ccccc3c(Nc3ccc(NS(C)(=O)=O)cc3)c12 |  | Not reached |  | 
CS(=O)(=O)Nc1ccc(Nc2c3ccccc3nc3ccc(C(N)=O)cc23)cc1 | 6.34 | Not reached |  | 
COc1ccc2c(Nc3ccc(NS(C)(=O)=O)cc3)c3ccccc3nc2c1 | 7.57 |  |  | 
CS(=O)(=O)Nc1ccc(Nc2c3ccccc3nc3cnccc23)cc1 |  | Not reached |  | 
COC(=O)Nc1ccc2c(Nc3ccc(NS(C)(=O)=O)cc3)c3ccccc3nc2c1 | 7.48 |  |  | 

The next lines start with results.

pKa (physchem) | SMILES | Log 1/D40 (Mus musculus [1]) | Log M50 (Salmonella typhimurium) | Log 1/D40 (Mus musculus [2])
5.92 | CS(=O)(=O)Nc1ccc(Nc2c3ccccc3nc3c(Cl)cccc23)cc1 |  |  | Not reached
6.43 | Cc1cccc2nc3ccccc3c(Nc3ccc(NS(C)(=O)=O)cc3)c12 |  |  | 
6.56 | CS(=O)(=O)Nc1ccc(Nc2c3ccccc3nc3cc(Br)ccc23)cc1 |  |  | 
6.57 | CS(=O)(=O)Nc1ccc(Nc2c3ccccc3nc3cc(Cl)ccc23)cc1 |  |  | 
5.86 | CS(=O)(=O)Nc1ccc(Nc2c3ccccc3nc3cccc(Cl)c23)cc1 |  |  | 
7.49 | Cc1ccc2c(Nc3ccc(NS(C)(=O)=O)cc3)c3ccccc3nc2c1 |  |  | 
6.42 | CS(=O)(=O)Nc1ccc(Nc2c3ccccc3nc3ccc(Cl)cc23)cc1 | Not reached |  | 
6.87 | COc1ccc2nc3ccccc3c(Nc3ccc(NS(C)(=O)=O)cc3)c2c1 | Not reached |  | 
7.23 | Cc1ccc2nc3ccccc3c(Nc3ccc(NS(C)(=O)=O)cc3)c2c1 | Not reached |  | 
7.15 | COc1cccc2c(Nc3ccc(NS(C)(=O)=O)cc3)c3ccccc3nc12 |  |  | 

Source: ChEMBL document CHEMBL1121401, “Potential antitumor agents. 33. Quantitative structure--activity relationships for mutagenic activity and antitumor activity of substituted 4'-(9-acridinylamino)methanesulfonanilide derivatives” (J Med Chem, 1980)
